Patent US20240091115A1, “Oral Care Compositions and Methods of Use” (Colgate-Palmolive Company, priority 2019, published 2024)

Columns and labels:
[1] = system: S. mutans biofilms; assay: Seahorse XFe Extracellular Flux Analyzer, bacterial metabolism (OCR/ECAR) in S. mutans biofilm; format: cell-based; conditions: CBD and arginine slurries
Experimental: (§1) Samples with varying amounts of cannabidiol (CBD) are assessed for their effects on cellular metabolism with and without various source of zinc. Using the Seahorse XF^e Extracellular Flux Analyzer, biofilm samples are grown for 48 hrs. […] The biofilms are harvested for culture. Diluted biofilm and toothpaste slurry are loaded to each well. Glycolysis—Extracellular Acidification Rate (ECAR) and Mitochondrial Respiration—Oxygen Consumption Rate (OCR) is measured for 25-50 cycles (˜360 minutes). […] The “CBD Oil” is 5% CBD (by wt. of the CBD Oil) in Hemp seed oil.

[2] = system: mixed species biofilm; assay: Seahorse XFe Extracellular Flux Analyzer, bacterial metabolism (OCR/ECAR) in mixed species biofilm; format: cell-based; conditions: oxygen consumption rate
Experimental: as §1
Where the “OCR” is oxygen consumption rate units as measured using the Seahorse XF^e Extracellular Flux Analyzer.: […]

N=C(N)NCCC[C@H](N)C(=O)O [1% Arg, arginine]
OCR Value (p mole/min) ([1]; Table 4, oxygen consumption rate, untreated 1449.50): 518.58 p mole/min | ECR Value (mpH/min) ([1]; Table 5, extracellular acidification rate, untreated 701.2): 518.6 mpH/min

CC(O)C(=O)[O-].CC(O)C(=O)[O-].[Zn+2] (stereo not shown) [1.5% Zinc Lactate, Zinc Lactate]
Average (OCR) (p mole/min) ([2]; Table 1, mixed biofilm, CBD and zinc lactate, untreated 25,669.50): 21,900.63 p mole/min

[F][Sn][F] [0.2% by wt. Stannous Fluoride, Stannous Fluoride]
Average (OCR) (p mole/min) ([2]; Table 3, mixed species biofilm, CBD and stannous fluoride slurries, untreated 11489.9): 10440.7 p mole/min
